{"source": "patent US6586241B1", "about": "“Methods to identify compounds affecting mitochondria” (Johns Hopkins University, priority 1998, dated 2003)", "key": {"[1]": {"target": "T1, sarcolemmal KATP channels (Oryctolagus cuniculus, UniProt O02822+P82451)", "T1 construct": "ventricular myocytes were isolated from adult rabbit hearts by conventional enzymatic dissociation; endogenous in cells; host or cells: primary adult rabbit ventricular myocytes", "T1 sequence (P82451 whole entry)": "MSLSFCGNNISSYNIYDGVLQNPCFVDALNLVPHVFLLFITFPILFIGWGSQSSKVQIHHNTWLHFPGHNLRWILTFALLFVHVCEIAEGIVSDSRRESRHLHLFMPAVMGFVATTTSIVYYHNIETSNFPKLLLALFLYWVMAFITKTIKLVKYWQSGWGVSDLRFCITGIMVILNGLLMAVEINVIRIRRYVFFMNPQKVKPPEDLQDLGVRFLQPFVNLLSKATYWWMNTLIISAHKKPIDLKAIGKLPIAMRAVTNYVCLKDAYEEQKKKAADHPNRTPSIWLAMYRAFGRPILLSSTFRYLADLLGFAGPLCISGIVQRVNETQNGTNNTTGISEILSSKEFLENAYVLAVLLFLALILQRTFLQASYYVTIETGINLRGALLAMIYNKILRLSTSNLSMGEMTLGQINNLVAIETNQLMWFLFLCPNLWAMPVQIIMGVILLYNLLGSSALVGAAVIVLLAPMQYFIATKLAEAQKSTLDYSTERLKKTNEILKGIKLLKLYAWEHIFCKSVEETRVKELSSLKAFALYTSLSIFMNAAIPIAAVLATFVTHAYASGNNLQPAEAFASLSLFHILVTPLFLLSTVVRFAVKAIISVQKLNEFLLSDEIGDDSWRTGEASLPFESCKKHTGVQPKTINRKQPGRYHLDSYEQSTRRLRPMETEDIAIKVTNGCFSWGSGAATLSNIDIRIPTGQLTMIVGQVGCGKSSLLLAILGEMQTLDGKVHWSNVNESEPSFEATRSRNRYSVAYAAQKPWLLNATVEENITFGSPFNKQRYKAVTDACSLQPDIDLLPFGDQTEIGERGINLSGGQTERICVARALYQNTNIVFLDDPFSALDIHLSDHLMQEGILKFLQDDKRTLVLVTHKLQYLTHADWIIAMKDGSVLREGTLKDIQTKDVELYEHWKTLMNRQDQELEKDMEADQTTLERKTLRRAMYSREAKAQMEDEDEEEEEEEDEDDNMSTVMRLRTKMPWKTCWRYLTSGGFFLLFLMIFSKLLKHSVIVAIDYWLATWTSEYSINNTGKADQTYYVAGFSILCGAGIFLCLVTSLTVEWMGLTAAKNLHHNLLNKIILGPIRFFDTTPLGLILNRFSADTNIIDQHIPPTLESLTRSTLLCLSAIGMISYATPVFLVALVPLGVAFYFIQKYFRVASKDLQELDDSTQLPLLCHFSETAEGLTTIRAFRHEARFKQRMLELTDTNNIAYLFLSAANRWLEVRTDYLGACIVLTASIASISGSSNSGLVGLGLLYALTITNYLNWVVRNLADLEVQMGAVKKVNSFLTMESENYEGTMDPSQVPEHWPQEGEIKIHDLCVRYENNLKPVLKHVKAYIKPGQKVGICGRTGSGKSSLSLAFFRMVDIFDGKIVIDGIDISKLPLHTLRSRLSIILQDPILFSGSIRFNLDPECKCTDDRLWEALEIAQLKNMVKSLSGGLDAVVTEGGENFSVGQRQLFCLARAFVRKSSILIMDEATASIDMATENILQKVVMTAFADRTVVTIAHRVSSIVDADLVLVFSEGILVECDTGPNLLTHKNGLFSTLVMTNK", "T1 sequence (O02822 whole entry)": "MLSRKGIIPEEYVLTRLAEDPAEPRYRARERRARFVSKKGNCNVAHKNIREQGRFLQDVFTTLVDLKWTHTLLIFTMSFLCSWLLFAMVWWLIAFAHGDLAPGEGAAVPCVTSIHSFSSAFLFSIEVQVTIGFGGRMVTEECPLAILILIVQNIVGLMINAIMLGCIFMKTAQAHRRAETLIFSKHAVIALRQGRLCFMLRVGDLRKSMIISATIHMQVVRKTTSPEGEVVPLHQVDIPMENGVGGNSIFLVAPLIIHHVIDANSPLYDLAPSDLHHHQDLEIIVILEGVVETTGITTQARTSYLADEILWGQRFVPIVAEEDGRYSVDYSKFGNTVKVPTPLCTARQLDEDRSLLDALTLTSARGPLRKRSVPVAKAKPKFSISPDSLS", "experiment": "Whole-cell patch recording of sarcolemmal KATP current (IKATP)", "assay_type": "cell-based, rabbit", "settings": "for activation of IKATP: treatment with diazoxide and 5-HD, FIG. 4", "description": "(§1) In the following Examples, ventricular myocytes were isolated from adult rabbit hearts by conventional enzymatic dissociation, according to Liu, Y., et al., “Synergistic modulation of ATP-sensitive K^+ currents by protein kinase C and adenosine: implications for ischemic preconditioning”, Circ. Res., 1996, 78: 443-454, then washed several times with calcium-free solution. […].\n(§2) For whole-cell patch recordings, the internal pipette solution contained (in mM): 120 K-glutamate, 25 KCI, 0.5 MgCl2, 10 K-EGTA, 10 HEPES and 1 MgATP (pH 7.2 with KOH). The external solution included (in mM): 140 NaCl, 5 KCI, 1 CaCl2, 1 MgCl2, and 10 HEPES (pH 7.4 with NaOH). Whole-cell currents were elicited every 6 sec from a holding potential of −80 mV by two consecutive steps to −40 mV (for 100 msec) and 0 mV (for 380 msec). Currents at 0 mV were measured 200 msec into the pulse. Endogenous flavoprotein fluorescence was excited using a xenon arc lamp with a bandpass filter centered at 480 nm, but only during the 100 msec step to −40 mV t to minimize photobleaching. Emitted fluorescence was recorded at 530 nm by a photomultiplier tube and digitized (Digidata 1200, Axon Instruments). (See Paucek, P., et al., “Cardioprotective effect of diazoxide and its interaction with mitochondrial KATP: possible mechanism of cardioprotection”, J. Mol Cell Cardiol, 1997, 29: A199(Abstract)). Relative fluorescence was averaged during the excitation window and calibrated using the values after dinitrophenol (DNP) and sodium cyanide (CN) exposure."}, "[2]": {"tested_on": "mitochondrial flavoprotein oxidation (mitochondrial KATP channels)", "experiment": "Flavoprotein fluorescence measurement of mitochondrial redox state in intact ventricular myocytes", "assay_type": "cell-based, rabbit", "description": "as §1, §2"}, "[3]": {"tested_on": "rabbit ventricular myocytes", "experiment": "Simulated ischemia (cell pelleting) and cellular injury, trypan blue", "assay_type": "cell-based", "settings": "for cytotoxicity at 50 µM: Oryctolagus cuniculus, Ventricular myocyte, 50 μM diazoxide, read-out: cells killed (% of viable cells prior to ischemia)", "protocol": "In the following Examples, the procedure to determine cell injury was modified from […] al. […]., et al., “An in vitro model of myocardial ischemia utilizing isolated adult rat myocytes”, J. Mol. Cell Cardiol, 1990, 22: 165-181. After cell isolation, cells were washed with incubation buffer (in mM): NaCl 119, NaHCO3 25, KH2PO4 1.2, KCl 4.8, MgSO4 1.2, HEPES 10, glucose 11, and supplemented with creatine, taurine and amino acids (pH 7.4). Calcium was added into the buffer stepwise (0.25 mM every 5 minutes) to a final concentration of 1 mM. An aliquot of each cell suspension (0.5 ml) was placed in a 0.5 ml microcentrifuge tube and centrifuged for 20 seconds into a pellet. Each pellet occupied a volume of about 0.2 ml. Approximately 0.25 ml of excess supernatant was removed to leave a thin fluid layer above the pellet, and 0.2 ml of mineral oil was layered on the top of the pellet to exclude gaseous diffusion. After 60 min and 120 min of pelleting, 5 μl of cell pellet were sampled through the oil layer and mixed with 75 µl of 85 mOsm hypotonic staining solution (in mM): […] Microscopic examination was performed 2-5 min after mixing to determine the permeability of the cells to trypan blue. Cells permeable to trypan blue were counted as dead and expressed as a percentage of the total cells counted (>200 for each sample). The killing of cells by ischemia was quantified as percentage of the vital cells at the beginning of each experiment (78-90% of total, mean=82±1% n=24). The small percentage of cells ( 18%) that were non-viable at the beginning of the experiment were mostly rounded and had been damaged as a known consequence of the enzymatic isolation process. Mitra, R., et al., “A uniform enzymatic method for dissociation of myocytes from hearts and stomachs of vertebrates”, Am. J. Physiol, 1985, 249: […]-[…]. Individual experiments in each of four groups were performed on cells isolated from different hearts. In the control group (Cont), cells were pelleted and sampled at the 60 min and 120 min. For the diazoxide-treated group (Diazo), 50 μM of diazoxide was added into the solution 15 min before the pelleting. In the third group (5-HD), 100 μM of 5-HD was added into the cell suspension 20 min prior to pelleting. Cells in the Diazo+5HD group were treated the same as in the third group except that 50 μM of diazoxide was added into the cell suspension 15 min before pelleting. Once applied, drugs were not washed out, and thus were present throughout the period of simulated ischemia."}, "intact hearts": {"tested_on": "intact hearts", "settings": "Paucek et al. 1997; cited from earlier work"}, "[4]": {"tested_on": "mitochondria of ventricular myocytes", "assay_type": "cell-based, rabbit", "settings": "sequential exposure diazoxide, DNP, CN; FIG. 8", "quoted_text": "In the following Examples, Confocal images were obtained using a Diaphot 300 inverted fluorescence microscope with a PCM-2000 confocal scanning attachment (Nikon, Inc.). Fluorescence was excited by the 488 nm line of an argon laser and the emission at 505-535 nm was recorded. A time series of images was collected at intervals of ˜10 sec and baseline, diazoxide, DNP and CN images were enhanced by averaging 8-10 sequential images having stable mean fluorescence intensities during the exposure to each agent.\nTo localize mitochondria, cells were loaded with 100 nM TMRE, which distributes into negatively charged cellular compartments, for 10 min., (Lemasters, J. J., et al., “Measurement of electrical potential, pH, and free calcium ion concentration in mitochondria of living cells by laser scanning confocal microscopy”, in Anonymous: Methods in Enzymology., New York, Academic Press, 1995, pp 429-417). TMRE fluorescence was excited with the 535 nm line of a helium neon laser and recorded at greater than 605 nm. A pseudocolor palette was applied to visualize the relative increase in mitochondrial flavoprotein oxidation state.\nImages were analyzed on a personal computer using the software program ImageTool (University of Texas Health Sciences Center in San Antonio). All the recordings were performed at room temperature (21-22° C.)."}}, "note": "“Also recorded” adds a separate entry of the source. Read-outs that look alike come from different tables or passages of the source.", "data": [{"smiles": "CC(N/C(=N\\C#N)Nc1ccncc1)C(C)(C)C", "note": "(centres unmarked) [pinacidil]", "values": [{"measurement": "sarcolemmal IKATP", "setting": "[1]; pinacidil 100 μM, measured at 0 mV, FIG. 6B", "value": "0.74±0.54", "unit": "nA"}, {"measurement": "mitochondrial oxidation", "setting": "[2]; pinacidil 100 μM, FIG. 6A", "value": "35±8", "unit": "%"}]}, {"smiles": "CCCCCC(O)CCCC(=O)O.[Na]", "note": "(centres unmarked) [5-HD, 5-hydroxydecanoic acid sodium]", "values": [{"measurement": "block of the protection by diazoxide", "setting": "[3]; 100 μM 5-HD", "value": "completely blocked"}, {"measurement": "activation of IKATP", "setting": "[1]", "value": "did not activate"}, {"measurement": "attenuation of the oxidative effect of diazoxide", "setting": "[2]; 100 μM 5-HD in the presence of diazoxide, FIG. 3", "value": "about half"}, {"measurement": "block of flavoprotein oxidation induced by diazoxide", "setting": "[2]; FIG. 2a", "value": "reversibly blocks"}, {"measurement": "flavoprotein oxidation, % of the DNP value", "setting": "[2]; diazoxide in the presence of 500 μM 5-HD, FIG. 3", "value": "8±3", "unit": "%"}]}, {"smiles": "CC1=NS(=O)(=O)c2cc(Cl)ccc2N1", "note": "[diazoxide]", "values": [{"measurement": "cytotoxicity at 50 µM", "setting": "[3]; 1 h, 60 min simulated ischemia", "value": "18 ± 3", "unit": "%"}, {"measurement": "cytotoxicity at 50 µM", "setting": "[3]; 2 h, 120 min simulated ischemia", "value": "23 ± 4", "unit": "%"}, {"measurement": "protection of ventricular myocytes compared with preconditioning", "setting": "[3]; cellular ischemia model", "value": "to the same extent as preconditioning"}, {"measurement": "activation of IKATP / membrane currents", "setting": "[1]; 100 μM, FIG. 1B", "value": "did not activate; also recorded: unchanged"}, {"measurement": "activation of IKATP", "setting": "[1]", "value": "did not activate"}, {"measurement": "cardioprotective EC25", "setting": "intact hearts", "value": 11, "unit": "µM"}, {"measurement": "mitochondrial oxidation, % of the DNP value", "setting": "[2]; 100 μM, first exposure DIAZO(1), FIG. 3", "value": "48±3", "unit": "%"}, {"measurement": "oxidation of the flavoproteins (flavoprotein fluorescence)", "setting": "[2]; 100 μM, FIG. 1A", "value": "induced reversible oxidation"}, {"measurement": "EC50", "setting": "[2]; Oryctolagus cuniculus, Ventricular myocyte, FIG. 5, 5-6 cells per point, read-out: EC50 to induce mitochondrial oxidation", "value": 27, "unit": "µM"}, {"measurement": "mitochondrial oxidation", "setting": "[2]; diazoxide exposure in the same cell as pinacidil", "value": "41±5", "unit": "%"}, {"measurement": "flavoprotein oxidation, % of the DNP value", "setting": "[2]; second exposure DIAZO(2) after washout, same cells, FIG. 3", "value": "43±5", "unit": "%"}, {"measurement": "flavoprotein fluorescence, confocal images", "setting": "[4]", "value": "increased fluorescence in strips parallel to the myofibril orientation"}]}, {"smiles": "COc1ccc(Cl)cc1C(=O)NCCc1ccc(S(=O)(=O)NC(=O)NC2CCCCC2)cc1", "note": "[Glybenclamide]", "values": [{"measurement": "block of the protection from diazoxide", "setting": "[3]; 1 μM glybenclamide, data not shown", "value": "blocked the protection"}]}]}
